We go through two molecules from patent US20250346550A1, “METHODS OF MODULATING ENDONUCLEASE G USING RESVERATROL AND ITS DERIVATIVES” (THE REGENTS OF THE UNIVERSITY OF COLORADO A BODY CORPORATE, priority 2022, published 2025).

Type in all cases: in vivo, C. elegans
For experiment [1], the system named is PME defect of lgg-1(bp523) embryos (autophagy pathway). The experiment in a line: PME microscopy assay in lgg-1(bp523) crosses. The settings on record: 50 μM, 64-cell embryos (FIG. 3c).
Method: The numbers of MTR-stained paternal mitochondrial clusters in embryos at 64-cell (a) or 16-cell (b) stage from the indicated crosses were scored. N2 males or hermaphrodites were pretreated with 0.25% ethanol (Mock), 50 μM cis-resveratrol (a), or 50 μM trans-resveratrol (b) as indicated before mating. c-g, Quantification of MTR-stained paternal mitochondrial clusters in 64-cell embryos from the indicated crosses treated with 0.25% ethanol (Mock), 50 μM cis-resveratrol, and 50 μM trans-resveratrol, respectively. Alleles used are lgg-1(bp523), cps-6(tm3222) and rad-23(tm2595).
The numbers of MTR-stained paternal mitochondrial clusters were scored as in FIG. 1a. cps-6(tm3222) and lgg-1(bp523) alleles were used in the assays. Data are mean±s.e.m. n=20 embryos (b) and 15 embryos (c) in each experiment. **P<0.01; ***P<0.001; n.s., not significant, two-sided, unpaired t-test.
To investigate how these six compounds might affect PME, the present inventors performed chemical genetic analysis to analyze the PME pathways that might be affected by the compounds. The present inventors first examined whether they might affect the paternal PME pathway mediated by the mitochondrial endonuclease CPS-6, whose activity is inhibited by oxidation and protected by reducing agents.
Experiment [2] deals with paternal uaDf5 mtDNA in cross-fertilized embryos. Nature of the experiment: PCR-based PME assay (paternal uaDf5 mtDNA). The settings on record: 50 μM; mock: detected up to 64-cell stage embryos. An excerpt: FIG. 7. Effects of different dosages of resveratrol isomers on PME. a, b, The effects of different dosages of cis-resveratrol (a) and trans-resveratrol (b) on PME. The numbers of MTR-stained paternal mitochondrial clusters in 64-cell embryos (a) or 16-cell embryos (b) from mating of MTR-stained N2 males with N2 hermaphrodites in the presence of the indicated concentrations of resveratrol isomers were scored. […] A single cross-fertilized embryo or larva (MTR- or GFP-positive) at the indicated stage was analyzed by PCR. uaDf5/+ and N2 hermaphrodites were controls.
We confirmed these findings using a polymerase chain reaction (PCR)-based PME assay, which monitors the fate of paternal mtDNA in fertilized eggs from males carrying a 3053 bp mtDNA deletion allele (uaDf5) in a heteroplasmic mixture with wild-type mtDNA (FIG. 7c). In mating between N2 hermaphrodites and uaDf5/+ males treated with the mock control, PCR products derived specifically from paternal uaDf5 mtDNA were detected only in early stage cross-fertilized embryos, up to 64-cell stage embryos (FIG. 2d).

The subject of experiment [3] is α-synuclein-induced dopaminergic neuronal death in baIn11 animals. The experiment in a line: α-synuclein-based Parkinson's Disease model, DA neuronal death. The note with it: 100 μM; for effect on α-synuclein-induced DA neuronal death: adult day 2 baIn11 animals vs 0.25% ethanol. An excerpt: (§1) FIG. 8. […] In each experiment, 300 animals were scored to determine the percentage of animals losing at least one dopaminergic neuron in the head. Data are mean±s.e.m. *P<0.05; ***P<0.001, two-sided, unpaired t-test.
FIG. 13. […] In each experiment, 300 animals were scored to determine the percentage of animals losing at least one of the six dopaminergic neurons in the head. Data are mean±s.e.m. ****P<0.001, two-sided, unpaired t-test.
(§2) In addition to PME and apoptosis, EndoG was previously shown to play an important role in mediating dopaminergic (DA) neuronal death induced by expression of human α-synuclein, which is widely considered to be a major proponent of Parkinson's disease. However, the mechanism by which EndoG mediates α-synuclein-induced neurodegeneration is unclear. In a C. elegans α-synuclein-based Parkinson's Disease model, co-expression of GFP and human α-synuclein in C. elegans dopaminergic neurons under the control of the promoter of the dat-1 gene, which encodes a dopamine transporter, from an integrated transgene baIn11 (Pdat-1::gfp/Pdat-1::α-synuclein) caused DA neuronal death in 30% of adult baIn11 animals (FIG. 8a). The cps-6(tm3222) mutation blocked DA neuronal death in adult baIn11 animals (FIG. 8a), confirming that CPS-6 is important for α-synuclein-induced DA neuronal death.

Experiment [4] concerns cps-6(tm3222); baIn11 animals. Nature of the experiment: DA neuronal death in cps-6(tm3222); baIn11 animals. The settings on record: 100 μM, adult day 2.
Excerpt: as §1, §2

Experiment [5] has as its system germline tumor in daf-16(mu86); cki-2(ok2105); glp-1(ar202) mutant (ET507). Nature of the experiment: germline tumor model (ET507). The settings on record: 200 μM, ET507 animals at 20° C.; for tumor size: adult day 5, vs 1% ethanol; for tumor occurring frequency: vs 1% ethanol. The method, then: FIG. 9. Cis-resveratrol inhibits and trans-resveratrol promotes germline tumor formation. Tumor size and tumor occurring frequency of the daf-16(mu86); cki-2(0k2105); glp-1 (ar202) mutant grown at 20° C. and treated with 1% ethanol (Mock), 200 μM cis-resveratrol (Cis), and 200 μM trans-resveratrol (Trans), respectively, are shown. Tumor assays were performed in triplicate with 100 animals per replicate. a, A five-stage classification was created to measure the tumor size in adult day 5 animals under the Normaski optic. Score 1 denotes the normal gonads seen in wild-type animals. Score 5 denotes enlarged gonads full of mitotic germ cells and without any egg or oocyte. Score 2-4 denote partially enlarged gonads. b, Tumor frequency indicates the percentage of animals with enlarged gonads (score 5). Data from three independent biological replicates are shown as mean±SEM. *P<0.05; **P<0.01; ***P<0.001, two-sided, unpaired t-test.
FIG. 14. stabilized cis-resveratrol inhibits germline tumor formation as well as cis-resveratrol. Tumor occurring frequency of the daf-16 (mu86); cki-2 (0k2105); glp-1 (ar202) mutant (ET507) grown at 20° C. and treated with 0.25% ethanol (Mock), 100 μM cis-resveratrol, and 100 μM Stabilized cis-resveratrol, respectively, are shown. Tumor assays were performed in triplicate with 100 animals per replicate. Data are mean±s.e.m. ****P<0.001, two-sided, unpaired t-test
The present inventors tested whether resveratrol isomers affect tumorigenesis in a C. elegans germline tumor model (ET507), in which three cell growth genes, daf-16, cki-2, and glp-1, are mutated, leading to uncontrolled germ cell proliferation and germline tumor.

On to `Oc1ccc(/C=C/c2cc(O)cc(O)c2)cc1` [trans-resveratrol, 3,5,4′-trihydroxy-trans-stilbene], for which the “effect on PME defects of the lgg-1(bp523) mutant” value in experiment [1] is on record as “suppressed”. Also, the “fate of paternal uaDf5 mtDNA” value in experiment [2] is “accelerated degradation of uaDf5 mtDNA”. For the same molecule, the “adult baIn11 animals with neurodegeneration (DA neuronal loss)” value in experiment [3] (adult day 2, mock 30%) is listed as 40%. Further, the “effect on α-synuclein-induced DA neuronal death” value in experiment [3] is on record as “enhanced dopaminergic neuron loss”. For the same molecule, the “dopaminergic neuronal loss in cps-6(tm3222); baIn11 animals” value in experiment [4] is “did not cause any dopaminergic neuronal loss”. For the same molecule, in experiment [5], the tumor size result was “increases” and the tumor occurring frequency entry is “increases”.

With `Oc1ccc(/C=C\c2cc(O)cc(O)c2)cc1` [cis-resveratrol], the “effect on PME defects of the lgg-1(bp523) mutant” value in experiment [1] is “enhanced”. Further, the “fate of paternal uaDf5 mtDNA” value in experiment [2] is recorded as “persistence of uaDf5 mtDNA to the late 4-fold embryos”. Moreover, the “adult baIn11 animals protected from neurodegeneration” value in experiment [3] (adult day 2) is recorded as 94%. For the same molecule, the “effect on α-synuclein-induced DA neuronal death” value in experiment [3] is “strongly inhibited DA neuronal death”. Besides, the “dopaminergic neuronal loss in cps-6(tm3222); baIn11 animals” value in experiment [4] is recorded as “did not cause any dopaminergic neuronal loss”. Besides, in experiment [5], the tumor size entry is “reduces” and the tumor occurring frequency entry is recorded as “reduces”.
